Legend:
alkaline phosphatase = alkaline phosphatase (Homo sapiens, UniProt P05187); assay: Conversion of the mutual MRA-β-agonist prodrug to salmeterol and MRA after exposure to alkaline phosphatase in vitro (LCMS); format: in vitro ADME; conditions: for Formation of dipeptide (Sagara 2006) in ALP (Peak Area Ratio) Normalized / Formation of dipeptide (Sagara 2006) in ALP (Peak Area Ratio) mean: from prodrug Example 29; for Formation of dipeptide (Sagara 2006) in ALP (Peak Area Ratio) Normalized / Formation of dipeptide (Sagara 2006) in ALP (Peak Area Ratio) mean / Example 29 (GS-343071) in ALP (Peak Area Ratio) Normalized / Example 29 (GS-343071) in ALP (Peak Area Ratio) mean: alkaline phosphatase
Procedure: Conversion of the Mutual MRA-β-Agonist Prodrug (Described in Example 29) to Salmeterol and MRA after Exposure to Alkaline Phosphatase In Vitro
(§1) Reaction Buffer (pH 7.4, 5 mM tris/1 mM Mg^2+/1 mM Zn^2+)
(§2) Diluted 5 ml of 50 mM tris stock, 1 ml of 50 mM MgCl2 stock, and 1 ml of ZnCl2 and then stocked to 10 ml with water.
Alkaline Phosphatase Stock Solution […]
Dissolved ˜2 mg of the mutual prodrug of invention in 10 ml 1:1 acetonitrile/water.
Reaction Product Stock Solution
Dissolved ˜2 mg of each MRA and β-agonist in 20 ml 1:1 acetonitrile/water
The stock solutions were mixed in microcentrifuge tubes, as depicted in the following Table:
(§3) The heat block was set at the 37 degrees. Then 0.5 mL of alkaline phosphatase solution was added into 4 preheated Eppendorf tubes. The aliquot 0.5 of prodrug and drug standards were added into preheated Eppendorf tubes. Immediately after vortexing the aliquots of 25 μL of the all reaction solutions were made into the respective 96-well plate positions. The internal standard (75 μl of 500 ng/mL Glyburide) was added into all samples after each aliquots. That procedure was repeated at every 15 minute intervals for ˜4-5 hrs.
The 96-well plates were then analyzed using the LCMS technique.
Half Life Calculation (t1/2)
(§4) In the calculation of half life, we assumed that the disappearance of the mutual prodrug of this invention followed first order kinetics. Therefore,
(§5) The area peak ratio of prodrug vs IS was plotted against time first; the peak area ratios of later time points were normalized with the peak area ratio of initial time point (ASAP). The natural log of the normalized ratio was then plotted against time to generate a linear curve. The slope of this linear curve k was used for the following calculation.
Graphic plotted rate constant of loss K
Drug Concentration Determination
Drug concentrations are calculated by normalizing the peak area ration to (t 0). Thus, calculated drug concentrations at any time point=normalized peak area ratio [t (0) mean/t mean]×initial drug concentration. Data (normalized peak area ratio) for the calculations of drug concentrations are listed in Table 1 and 2 for compounds in Example 29 (GS343071), salmeterol, and the dipeptide (M3 antagonist prepared by Sagara 2006).

[1] = Half life of the prodrug in reaction buffer only (no alkaline phosphatase); format: physicochemical; conditions: reaction buffer without alkaline phosphatase; reaction buffer pH 7.4, no alkaline phosphatase
Procedure: as §1, §2
as §3, with “Then 0.5 mL of alkaline phosphatase solution was added into 4 preheated Eppendorf tubes.” left out
as §4, §5

Chain of alkaline phosphatase (P05187 23-506 limits assumed): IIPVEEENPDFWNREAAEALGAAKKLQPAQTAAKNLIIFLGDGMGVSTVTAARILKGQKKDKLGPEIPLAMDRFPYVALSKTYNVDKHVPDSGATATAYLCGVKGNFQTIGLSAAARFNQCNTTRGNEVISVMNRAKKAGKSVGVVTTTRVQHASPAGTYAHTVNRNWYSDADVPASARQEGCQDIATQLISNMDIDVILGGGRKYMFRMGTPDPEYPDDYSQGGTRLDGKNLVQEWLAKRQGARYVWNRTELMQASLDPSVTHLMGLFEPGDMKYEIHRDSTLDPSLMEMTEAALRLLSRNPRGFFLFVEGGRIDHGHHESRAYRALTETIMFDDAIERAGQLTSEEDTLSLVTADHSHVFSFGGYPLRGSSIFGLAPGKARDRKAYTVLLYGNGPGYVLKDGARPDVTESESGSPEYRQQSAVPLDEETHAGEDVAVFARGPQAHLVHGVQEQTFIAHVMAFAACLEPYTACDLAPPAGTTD

CN1CCC(CNC(=O)[C@H]2CCCN2C(=O)[C@@H]2CC(O)CN2C(=O)CC(c2ccc(F)cc2)(c2ccc(F)cc2)c2ccc(F)cc2)CC1 (stereo partly drawn) [dipeptide (Sagara 2006), 1-{4-hydroxy-1-[3,3,3-tris-(4-fluoro-phenyl)-propionyl]-pyrrolidine-(S)-2-carbonyl}-pyrrolidine-(R)-2-carboxylic acid-(1-methyl-piperidin-4-ylmethyl)-amide, reference compound]
Formation of dipeptide (Sagara 2006) in ALP (Peak Area Ratio) Normalized (alkaline phosphatase; Time 0 mins, 37 degrees): 1.0000
Formation of dipeptide (Sagara 2006) in ALP (Peak Area Ratio) mean (alkaline phosphatase; Time 0 mins, 37 degrees): 0.1765
Formation of dipeptide (Sagara 2006) in ALP (Peak Area Ratio) Normalized (alkaline phosphatase; Time 15.0 mins, 37 degrees): 1.9830
Formation of dipeptide (Sagara 2006) in ALP (Peak Area Ratio) mean (alkaline phosphatase; Time 15.0 mins, 37 degrees): 0.3500
Formation of dipeptide (Sagara 2006) in ALP (Peak Area Ratio) Normalized (alkaline phosphatase; Time 30.0 mins, 37 degrees): 2.7365
Formation of dipeptide (Sagara 2006) in ALP (Peak Area Ratio) mean (alkaline phosphatase; Time 30.0 mins, 37 degrees): 0.4830
Formation of dipeptide (Sagara 2006) in ALP (Peak Area Ratio) Normalized (alkaline phosphatase; Time 45.0 mins, 37 degrees): 2.7989
Formation of dipeptide (Sagara 2006) in ALP (Peak Area Ratio) mean (alkaline phosphatase; Time 45.0 mins, 37 degrees): 0.4940
Formation of dipeptide (Sagara 2006) in ALP (Peak Area Ratio) Normalized (alkaline phosphatase; Time 60.0 mins, 37 degrees): 3.0595
Formation of dipeptide (Sagara 2006) in ALP (Peak Area Ratio) mean (alkaline phosphatase; Time 60.0 mins, 37 degrees): 0.5400
Formation of dipeptide (Sagara 2006) in ALP (Peak Area Ratio) Normalized (alkaline phosphatase; Time 75.0 mins, 37 degrees): 3.2210
Formation of dipeptide (Sagara 2006) in ALP (Peak Area Ratio) mean (alkaline phosphatase; Time 75.0 mins, 37 degrees): 0.5685
Formation of dipeptide (Sagara 2006) in ALP (Peak Area Ratio) Normalized (alkaline phosphatase; Time 90.0 mins, 37 degrees): 3.6402
Formation of dipeptide (Sagara 2006) in ALP (Peak Area Ratio) mean (alkaline phosphatase; Time 90.0 mins, 37 degrees): 0.6425
Formation of dipeptide (Sagara 2006) in ALP (Peak Area Ratio) Normalized (alkaline phosphatase; Time 105 mins, 37 degrees): 3.8612
Formation of dipeptide (Sagara 2006) in ALP (Peak Area Ratio) mean (alkaline phosphatase; Time 105 mins, 37 degrees): 0.6815
Formation of dipeptide (Sagara 2006) in ALP (Peak Area Ratio) Normalized (alkaline phosphatase; Time 120 mins, 37 degrees): 3.9207
Formation of dipeptide (Sagara 2006) in ALP (Peak Area Ratio) mean (alkaline phosphatase; Time 120 mins, 37 degrees): 0.6920
Formation of dipeptide (Sagara 2006) in ALP (Peak Area Ratio) Normalized (alkaline phosphatase; Time 135 mins, 37 degrees): 4.0793
Formation of dipeptide (Sagara 2006) in ALP (Peak Area Ratio) mean (alkaline phosphatase; Time 135 mins, 37 degrees): 0.7200
Formation of dipeptide (Sagara 2006) in ALP (Peak Area Ratio) Normalized (alkaline phosphatase; Time 150 mins, 37 degrees): 4.2890
Formation of dipeptide (Sagara 2006) in ALP (Peak Area Ratio) mean (alkaline phosphatase; Time 150 mins, 37 degrees): 0.7570
Formation of dipeptide (Sagara 2006) in ALP (Peak Area Ratio) Normalized (alkaline phosphatase; Time 165 mins, 37 degrees): 4.4193
Formation of dipeptide (Sagara 2006) in ALP (Peak Area Ratio) mean (alkaline phosphatase; Time 165 mins, 37 degrees): 0.7800
Formation of dipeptide (Sagara 2006) in ALP (Peak Area Ratio) Normalized (alkaline phosphatase; Time 180 mins, 37 degrees): 4.7082
Formation of dipeptide (Sagara 2006) in ALP (Peak Area Ratio) mean (alkaline phosphatase; Time 180 mins, 37 degrees): 0.8310
Formation of dipeptide (Sagara 2006) in ALP (Peak Area Ratio) Normalized (alkaline phosphatase; Time 210 mins, 37 degrees): 5.0227
Formation of dipeptide (Sagara 2006) in ALP (Peak Area Ratio) mean (alkaline phosphatase; Time 210 mins, 37 degrees): 0.8865
Formation of dipeptide (Sagara 2006) in ALP (Peak Area Ratio) Normalized (alkaline phosphatase; Time 240 mins, 37 degrees): 5.0567
Formation of dipeptide (Sagara 2006) in ALP (Peak Area Ratio) mean (alkaline phosphatase; Time 240 mins, 37 degrees): 0.8925
Formation of dipeptide (Sagara 2006) in ALP (Peak Area Ratio) Normalized (alkaline phosphatase; Time 270 mins, 37 degrees): 5.6997
Formation of dipeptide (Sagara 2006) in ALP (Peak Area Ratio) mean (alkaline phosphatase; Time 270 mins, 37 degrees): 1.0060

C[N+]1(Cc2cc(C(O)CNCCCCCCOCCCCc3ccccc3)ccc2OP(=O)(O)O)CCC(CNC(=O)[C@H]2CCCN2C(=O)[C@@H]2C[C@@H](O)CN2C(=O)CC(c2ccc(F)cc2)(c2ccc(F)cc2)c2ccc(F)cc2)CC1 (stereo partly drawn) [Example 29, 1-(5-{1-Hydroxy-2-[6-(4-phenyl-butoxy)-hexylamino]-ethyl}-2-phosphonooxy-benzyl)-4-{[(1-{4-hydroxy-1-[3,3,3-tris-(4-fluoro-phenyl)-propionyl]-pyrrolidine-(S)-2-carbonyl}-pyrrolidine-(R)-2-carbonyl)-amino]-methyl}-1-methyl-piperidinium]
Half Life t1/2 (alkaline phosphatase; ALP Enzyme Conc. 0.224 mg/mL, 37 degrees, first order kinetics assumed): 1.58 h
Calculated Compound Final Conc. (μM) at 270 mins. (alkaline phosphatase; Added Compound Initial Conc. 86.6 μM in Reaction Mixture, ALP Enzyme Conc. 0.443 mg/mL): 7.8 µM
Example 29 (GS-343071) in ALP (Peak Area Ratio) Normalized (alkaline phosphatase; Time 0 mins, 37 degrees): 1.0000
Example 29 (GS-343071) in ALP (Peak Area Ratio) mean (alkaline phosphatase; Time 0 mins, 37 degrees): 0.2030
Example 29 (GS-343071) in ALP (Peak Area Ratio) Normalized (alkaline phosphatase; Time 15.0 mins, 37 degrees): 0.5887
Example 29 (GS-343071) in ALP (Peak Area Ratio) mean (alkaline phosphatase; Time 15.0 mins, 37 degrees): 0.1195
Example 29 (GS-343071) in ALP (Peak Area Ratio) Normalized (alkaline phosphatase; Time 30.0 mins, 37 degrees): 0.4340
Example 29 (GS-343071) in ALP (Peak Area Ratio) mean (alkaline phosphatase; Time 30.0 mins, 37 degrees): 0.0881
Example 29 (GS-343071) in ALP (Peak Area Ratio) Normalized (alkaline phosphatase; Time 45.0 mins, 37 degrees): 0.3313
Example 29 (GS-343071) in ALP (Peak Area Ratio) mean (alkaline phosphatase; Time 45.0 mins, 37 degrees): 0.0673
Example 29 (GS-343071) in ALP (Peak Area Ratio) Normalized (alkaline phosphatase; Time 60.0 mins, 37 degrees): 0.2850
Example 29 (GS-343071) in ALP (Peak Area Ratio) mean (alkaline phosphatase; Time 60.0 mins, 37 degrees): 0.0579
Example 29 (GS-343071) in ALP (Peak Area Ratio) Normalized (alkaline phosphatase; Time 75.0 mins, 37 degrees): 0.2387
Example 29 (GS-343071) in ALP (Peak Area Ratio) mean (alkaline phosphatase; Time 75.0 mins, 37 degrees): 0.0485
Example 29 (GS-343071) in ALP (Peak Area Ratio) Normalized (alkaline phosphatase; Time 90.0 mins, 37 degrees): 0.2079
Example 29 (GS-343071) in ALP (Peak Area Ratio) mean (alkaline phosphatase; Time 90.0 mins, 37 degrees): 0.0422
Example 29 (GS-343071) in ALP (Peak Area Ratio) Normalized (alkaline phosphatase; Time 105 mins, 37 degrees): 0.2017
Example 29 (GS-343071) in ALP (Peak Area Ratio) mean (alkaline phosphatase; Time 105 mins, 37 degrees): 0.0410
Example 29 (GS-343071) in ALP (Peak Area Ratio) Normalized (alkaline phosphatase; Time 120 mins, 37 degrees): 0.1788
Example 29 (GS-343071) in ALP (Peak Area Ratio) mean (alkaline phosphatase; Time 120 mins, 37 degrees): 0.0363
Example 29 (GS-343071) in ALP (Peak Area Ratio) Normalized (alkaline phosphatase; Time 135 mins, 37 degrees): 0.1643
Example 29 (GS-343071) in ALP (Peak Area Ratio) mean (alkaline phosphatase; Time 135 mins, 37 degrees): 0.0334
Example 29 (GS-343071) in ALP (Peak Area Ratio) Normalized (alkaline phosphatase; Time 150 mins, 37 degrees): 0.1397
Example 29 (GS-343071) in ALP (Peak Area Ratio) mean (alkaline phosphatase; Time 150 mins, 37 degrees): 0.0284
Example 29 (GS-343071) in ALP (Peak Area Ratio) Normalized (alkaline phosphatase; Time 165 mins, 37 degrees): 0.1310
Example 29 (GS-343071) in ALP (Peak Area Ratio) mean (alkaline phosphatase; Time 165 mins, 37 degrees): 0.0266
Example 29 (GS-343071) in ALP (Peak Area Ratio) Normalized (alkaline phosphatase; Time 180 mins, 37 degrees): 0.1372
Example 29 (GS-343071) in ALP (Peak Area Ratio) mean (alkaline phosphatase; Time 180 mins, 37 degrees): 0.0279
Example 29 (GS-343071) in ALP (Peak Area Ratio) Normalized (alkaline phosphatase; Time 210 mins, 37 degrees): 0.1163
Example 29 (GS-343071) in ALP (Peak Area Ratio) mean (alkaline phosphatase; Time 210 mins, 37 degrees): 0.0236
Example 29 (GS-343071) in ALP (Peak Area Ratio) Normalized (alkaline phosphatase; Time 240 mins, 37 degrees): 0.0978
Example 29 (GS-343071) in ALP (Peak Area Ratio) mean (alkaline phosphatase; Time 240 mins, 37 degrees): 0.0199
Example 29 (GS-343071) in ALP (Peak Area Ratio) Normalized (alkaline phosphatase; Time 270 mins, 37 degrees): 0.0906
Example 29 (GS-343071) in ALP (Peak Area Ratio) mean (alkaline phosphatase; Time 270 mins, 37 degrees): 0.0184
half-life (alkaline phosphatase; human, pH 7.4, ALP Enzyme Conc. 0.224 mg/mL, 37 degrees, first order kinetics assumed, read-out: Half Life t1/2): 1.04 h
half-life at 86.6 μM (alkaline phosphatase; human, pH 7.4, ALP Enzyme Conc. 0.443 mg/mL, 37 degrees, first order kinetics assumed, read-out: Half Life t1/2): 0.72 h
half-life [1]: 12.8 h
